Source: patent publication US20250243196A1, “CITRON KINASE INHIBITORS” (The Cleveland Clinic Foundation, priority 2021, published 2025)

biological target: Citron kinase (Homo sapiens (Human), UniProt O14578); assay: Radiometric citron kinase assay (Eurofins Cat #16-040KP); assay type: biochemical; details: mean of at least two independent assays; read-out: Radiometric CitK IC50
Excerpt: In some embodiments, the step of contacting the sample with the compound comprises administering the compound to a subject (e.g., a subject) suffering from cancer. Methods of determining kinase inhibition are well known in the art. For example, kinase activity of an enzyme and the inhibitory capacity of a test compound can be determined by measuring enzyme specific phosphorylation of a substrate. Commercial assays and kits can be employed. For example, kinase inhibition can be determined using a radiometric binding assay, such as using KinaseProfiler™ technology (Eurofins Discovery). This assay method directly detects product formation without the use of modified substrates or coupling enzymes. Test compounds are incubated with kinase, substrate, required cofactors and radioisotope labeled ATP. Following incubation, unreacted radioactive ATP is removed by washing and incorporation of the radiolabeled phosphate into the kinase substrate is assayed to detect phosphoryltransferase activity, which is directly proportional to the amount of phosphorylated substrate. Inhibition of the kinase by a kinase inhibitor prevents phosphorylation of the substrate and thereby limits the incorporation of radiolabeled phosphate. Such an assay is compatible with a microwell assay format, allowing simultaneous determination of IC50 of multiple compounds.
Compounds were screened for biochemical kinase activity (Eurofins Discovery, France) using one of two assays. […] All values in Table 1 are the mean of at least two independent assays.

Chain of Citron kinase (O14578 whole entry): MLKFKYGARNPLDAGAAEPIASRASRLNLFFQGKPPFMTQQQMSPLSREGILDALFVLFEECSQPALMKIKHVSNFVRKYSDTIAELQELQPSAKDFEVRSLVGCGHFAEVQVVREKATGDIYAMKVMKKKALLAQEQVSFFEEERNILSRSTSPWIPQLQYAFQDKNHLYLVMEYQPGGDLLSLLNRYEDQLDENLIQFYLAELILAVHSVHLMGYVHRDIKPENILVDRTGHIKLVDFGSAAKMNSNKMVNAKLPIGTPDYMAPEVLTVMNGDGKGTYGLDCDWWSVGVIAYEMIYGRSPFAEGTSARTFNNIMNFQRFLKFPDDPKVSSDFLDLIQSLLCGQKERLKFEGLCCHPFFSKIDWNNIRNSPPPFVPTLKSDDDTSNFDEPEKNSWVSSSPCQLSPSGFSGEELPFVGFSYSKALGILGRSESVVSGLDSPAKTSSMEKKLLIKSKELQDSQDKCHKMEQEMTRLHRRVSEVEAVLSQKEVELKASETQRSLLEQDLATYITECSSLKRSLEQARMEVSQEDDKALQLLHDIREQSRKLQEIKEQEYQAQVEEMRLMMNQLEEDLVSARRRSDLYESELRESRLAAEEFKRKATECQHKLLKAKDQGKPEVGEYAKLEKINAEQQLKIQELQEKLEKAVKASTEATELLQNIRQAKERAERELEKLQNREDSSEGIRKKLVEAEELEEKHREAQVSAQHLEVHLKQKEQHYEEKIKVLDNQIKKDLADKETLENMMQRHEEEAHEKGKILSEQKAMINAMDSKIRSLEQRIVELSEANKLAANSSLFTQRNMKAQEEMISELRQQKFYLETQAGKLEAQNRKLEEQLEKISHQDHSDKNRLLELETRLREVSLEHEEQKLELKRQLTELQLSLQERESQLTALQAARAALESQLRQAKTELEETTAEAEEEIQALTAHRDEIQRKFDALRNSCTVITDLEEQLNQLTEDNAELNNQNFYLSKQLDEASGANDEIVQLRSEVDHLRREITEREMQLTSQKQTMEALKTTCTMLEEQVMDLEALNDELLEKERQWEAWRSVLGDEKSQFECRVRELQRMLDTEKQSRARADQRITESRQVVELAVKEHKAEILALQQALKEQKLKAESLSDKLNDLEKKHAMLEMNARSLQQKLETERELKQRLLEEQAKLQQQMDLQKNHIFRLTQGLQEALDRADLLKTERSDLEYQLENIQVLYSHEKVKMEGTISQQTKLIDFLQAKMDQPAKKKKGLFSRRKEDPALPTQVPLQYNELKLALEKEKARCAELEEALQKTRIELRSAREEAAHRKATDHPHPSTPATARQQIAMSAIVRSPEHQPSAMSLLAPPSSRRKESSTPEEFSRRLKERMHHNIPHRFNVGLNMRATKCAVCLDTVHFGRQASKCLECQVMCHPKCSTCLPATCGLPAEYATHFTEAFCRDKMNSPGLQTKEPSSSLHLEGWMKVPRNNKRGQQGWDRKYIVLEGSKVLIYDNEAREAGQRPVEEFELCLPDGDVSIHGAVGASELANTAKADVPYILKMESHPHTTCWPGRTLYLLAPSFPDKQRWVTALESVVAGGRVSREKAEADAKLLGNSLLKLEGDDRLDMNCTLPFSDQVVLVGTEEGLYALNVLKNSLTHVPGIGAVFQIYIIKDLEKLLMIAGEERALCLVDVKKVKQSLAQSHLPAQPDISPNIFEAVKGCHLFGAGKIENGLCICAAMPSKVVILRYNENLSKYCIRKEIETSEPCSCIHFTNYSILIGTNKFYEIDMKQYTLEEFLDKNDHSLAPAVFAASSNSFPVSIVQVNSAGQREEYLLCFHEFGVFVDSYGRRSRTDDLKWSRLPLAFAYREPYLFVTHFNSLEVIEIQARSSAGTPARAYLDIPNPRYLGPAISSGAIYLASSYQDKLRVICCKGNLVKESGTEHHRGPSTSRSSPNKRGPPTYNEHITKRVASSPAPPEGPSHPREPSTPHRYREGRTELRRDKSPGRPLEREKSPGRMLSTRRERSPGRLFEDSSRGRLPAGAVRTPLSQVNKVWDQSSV

| SMILES | IC50 |
| --- | --- |
| COCCN[C@H](CC(C)C)C(=O)Nc1ccc(-c2ccnc3[nH]ccc23)cc1 [Compound F-46, (2R)-2-(2-Methoxyethylamino)-4-methyl-N-[4-(1H-pyrrolo[2,3-b]pyridin-4-yl)phenyl]pentanamide] | 1260 nM |
| N[C@H](Cc1ccccc1)C(=O)Nc1ccc(-c2ccnc3[nH]ccc23)c(C(F)(F)F)c1 [Compound F-130, (2R)-2-Amino-3-phenyl-N-[4-(1H-pyrrolo[2,3-b]pyridin-4-yl)-3-(trifluoromethyl)phenyl]propanamide] | 1420 nM |
| CC(C)C[C@@H](NCC1CC1)C(=O)Nc1ccc(-c2ccnc3[nH]ccc23)cc1 [Compound F-45, (2R)-2-(Cyclopropymethylamino)-4-methyl-N-[4-[1H-pyrrolo[2,3-b]pyridin-4-yl]phenyl]pentanamide] | 683 nM |
| NC(CC(F)(F)F)C(=O)Nc1ccc(-c2ccnc3[nH]ccc23)cc1 (stereo not drawn) [Compound F-22, 2-Amino-4,4,4-trifluoro-N-[4-(1H-pyrrolo[2,3-b]pyridin-4-yl)phenyl]butanamide] | 554 nM |
| N[C@H](Cc1ccccc1)C(=O)Nc1ccc(-c2ccnc3[nH]ccc23)cc1Cl [Compound F-133, (2R)-2-Amino-N-[2-chloro-4-(1H-pyrrolo[2,3-b]pyridin-4-yl)phenyl]-3-phenyl-propanamide] | 557 nM |
| CC(C)C[C@@H](NC1CC1)C(=O)Nc1ccc(-c2ccnc3[nH]ccc23)cc1 [Compound F-44, (2R)-2-(Cyclopropylamino)-4-methyl-N-[4-(1H-pyrrolo[2,3-b]pyridin-4-yl)phenyl]pentanamide] | 555 nM |
| Cc1cnc2[nH]ccc2c1-c1ccc(NC(=O)[C@H](N)C(C)(C)C)cc1 [Compound F-107, (2R)-2-Amino-3,3-dimethyl-N-[4-(5-methyl-1H-pyrrolo[2,3-b]pyridin-4-yl)phenyl]butanamide] | 371 nM |

Now from value to compound:

| IC50 | SMILES |
| --- | --- |
| 29.3 nM | Cc1cc2c(-c3ccc(NC(=O)[C@H](N)CC(C)(C)C)cc3C(F)F)ccnc2[nH]1 [Compound F-97, (2R)-2-Amino-N-[3-(difluoromethyl)-4-(2-methyl-1H-pyrrolo[2,3-b]pyridin-4-yl)phenyl]-4,4-dimethyl-pentanamide] |
| 366 nM | Cc1cc2c(-c3ccc(NC(=O)[C@@H](N)C(C)(C)C)cc3)ccnc2[nH]1 [Compound F-51, (2S)-2-Amino-3,3-dimethyl-N-[4-(2-methyl-1H-pyrrolo[2,3-b]pyridin-4-yl)phenyl]butanamide] |
| 96.9 nM | Cc1cc2c(-c3ncc(NC(=O)[C@H](N)CC(C)(C)C)cc3C)ccnc2[nH]1 [Compound F-96, (2R)-2-Amino-4,4-dimethyl-N-[5-methyl-6-(2-methyl-1H-pyrrolo[2,3-b]pyridin-4-yl)-3-pyridyl]pentanamide] |
| 144 nM | Cc1cc(NC(=O)[C@H](N)Cc2ccccc2)ccc1-c1ccnc2[nH]ccc12 [Compound F-127, (2R)-2-Amino-N-[3-methyl-4-(1H-pyrrolo[2,3-b]pyridin-4-yl)phenyl]-3-phenyl-propanamide] |
| 69.6 nM | CCC[C@@H](N)C(=O)Nc1ccc(-c2ccnc3[nH]ccc23)cc1 [Compound F-14, (2R)-2-Amino-N-[4-(1H-pyrrolo[2,3-b]pyridin-4-yl)phenyl]pentanamide] |
| 57.7 nM | CC(C)(C)[C@@H](N)C(=O)Nc1ccc(-c2ccnc3[nH]ccc23)c(F)c1 [Compound F-66, (2R)-2-Amino-N-[3-fluoro-4-(1H-pyrrolo[2,3-b]pyridin-4-yl)phenyl]-3,3-dimethyl-butanamide] |
| 7.8 nM | Cc1cc(NC(=O)[C@H](N)CC(C)(C)C)ccc1-c1ccnc2[nH]ccc12 [Compound F-60, (2R)-2-Amino-4,4-dimethyl-N-[3-methyl-4-(1H-pyrrolo[2,3-b]pyridin-4-yl)phenyl]pentanamide] |
| 29.6 nM | CC(C)(C)[C@@H](N)C(=O)Nc1nc(-c2ccnc3[nH]ccc23)cs1 [Compound F-111, (2R)-2-Amino-3,3-dimethyl-N-[4-(1H-pyrrolo[2,3-b]pyridin-4-yl)thiazol-2-yl]butanamide] |
